Data reported in PubChem BioAssay (NCI).
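Tested at 5 concentrations; 48 h exposure; 96-well plates; endpoints linearly interpolated, else capped at highest concentration. At the TGI there is no net growth.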

Tests used:
Assay in all cases: growth of human tumour cells (NCI), 48 h
OVCAR-5 ovarian = test system: OVCAR-5 ovarian
SR leukemia = test system: SR leukemia
MOLT-4 leukemia = test system: MOLT-4 leukemia
HCT-15 colon = test system: HCT-15 colon
MDA-MB-231 breast = test system: MDA-MB-231 breast
COLO 205 colon = test system: COLO 205 colon
OVCAR-8 ovarian = test system: OVCAR-8 ovarian
K-562 leukemia = test system: K-562 leukemia
SF-268 CNS = test system: SF-268 CNS
A549 NSCLC = test system: A549 NSCLC
SK-MEL-2 melanoma = test system: SK-MEL-2 melanoma
NCI-H226 lung = test system: NCI-H226 lung
RPMI-8226 leukemia = test system: RPMI-8226 leukemia
U251 CNS = test system: U251 CNS

Structure (SMILES)	TGI (OVCAR-5 ovarian) [µM]	TGI (SR leukemia) [µM]	TGI (MOLT-4 leukemia) [µM]	TGI (HCT-15 colon) [µM]	TGI (MDA-MB-231 breast) [µM]	TGI (COLO 205 colon) [µM]	TGI (OVCAR-8 ovarian) [µM]	TGI (K-562 leukemia) [µM]	TGI (SF-268 CNS) [µM]	TGI (A549 NSCLC) [µM]	TGI (SK-MEL-2 melanoma) [µM]	TGI (NCI-H226 lung) [µM]	TGI (RPMI-8226 leukemia) [µM]	TGI (U251 CNS) [µM]
CC1(C)N=C(/C(C#N)=[N+](/[O-])C(=O)c2ccccc2)C(C)(C)N1O	> 100	> 100	> 100	> 100	> 100	> 100	> 100	> 100	> 100	> 100	> 100	> 100	> 100	> 100
CC[S+](C)c1ccc(-c2c3nc(c(-c4ccc([S+](C)CC)cc4)c4ccc([nH]4)c(-c4ccc([S+](C)CC)cc4)c4nc(c(-c5ccc([S+](C)CC)cc5)c5ccc2[nH]5)C=C4)C=C3)cc1 (configuration not stated)	65.8	87.5	67.1	> 100		> 100	> 100	> 100	> 100	> 100	77.5		41	> 100
COc1ccc(CCN2CCOCC2)cc1	> 100	> 100	> 100	> 100	> 100	> 100		> 100	> 100	> 100	> 100	> 100	> 100	> 100
CN1CCN(c2ccc3nc(-c4ccc5nc(-c6ccc(N(C)CCCl)cc6)[nH]c5c4)[nH]c3c2)CC1	12.4	12.5	0.357	26.1	22.3	0.341	1.53	1.16	11	10.1	0.465	5.2	16.5	1.09
Oc1cccc2nc3cc(CN4CCOCC4)c(CN4CCOCC4)cc3nc12	> 100	> 100	> 100	> 100		> 100	> 100	> 100	> 100	> 100	> 100	> 100		> 100
CCN1CCC(O)(c2ccc(Cl)c(Cl)c2)C(C(=O)c2ccc(Cl)c(Cl)c2)C1 (configuration not stated)	35.7		32.4	36.6		31.7	41	37.7	38.6	40.7	31.9	40.1	5.72	35.9
O=C(O)C1(CC(CCCN2CCCCC2)c2ccccc2)CCCC1 (configuration not stated)	> 100	> 100	> 100	> 100	> 100	> 100	> 100	> 100	> 100	> 100	> 100	> 100	> 100	> 100
O=C(Nc1cc([N+](=O)[O-])cc([N+](=O)[O-])c1)OC1C2CCC1C1OC1C2 (configuration not stated)	> 50		> 50	> 50		> 50	> 50	> 50	> 50	> 50	> 50		> 50	> 50
COc1cc(C(=O)OC2CC(C)=CC[C@@]3(C)CC[C@](O)(C(C)C)C23)ccc1O (some centres not stated)	32.6	84.1	40.6	35.3	30.5	39	36.6	38.3	38.7	27.7	33.2	32.5	53.1	67
CC(=O)NNc1nc(C)c(C(/C=C/c2ccc(Cl)cc2)=N/NC(=S)NN)s1	> 100	> 100	> 100	> 100		> 100	> 100	> 100	> 100	> 100	> 100	> 100	> 100	> 100
CN(C)C(=S)/N=c1\ssc(=S)n1Cc1ccccn1	> 100		> 100	> 100		21.4	> 100		> 100	> 100	5.98	> 100	> 25.9	> 100
COc1cc(OC)c(NC2=NCCO2)cc1Cl	> 100	83.2	> 100	> 100	64.5	38.2	> 100	> 100	> 100	> 100	36.3	75.6	> 100	> 100
CCc1c(-c2coc(CC/C(C)=C/c3ccccc3)n2)oc(OC)c(C)c1=O	> 100	29.3	> 100	> 55.5		> 47.8	> 100	> 100	> 100	> 100	> 100	> 100	> 100	> 53.9
